Counter-ions that a name gives are not always drawn. Like-named read-outs stand apart in the source and are kept apart here. Where a SMILES comes first, the peptide text is derived from it. [ ]: non-standard residue; d: D form. Nle = CCCC[CH](N)C(=O)O Bounds are passed on as bounds.

In one data set the test system is Bax-mediated apoptosis. The conditions noted are these: functions as effectively as Caspase Inhibitor VI (Z-VAD-FMK); cited from earlier work.
Data set [1] deals with whole blood samples. The data set can be described thus: DNA size distribution by chip gel electrophoresis (blood cell stability/DNA release). The class given is cell-based, human. To be noted: 20 μM in 10 ml K2E blood; day 3 and day 7. The procedure:
To separate the blood plasma from the whole blood, the blood samples were centrifuged for 15 min at 5000 rpm, and the obtained plasma samples were again centrifuged for 10 min at 16.000×g at 4° C.
The circulating, extracellular nucleic acids were purified from the obtained plasma samples using the QIAamp® Circulating NA Kit (QIAGEN, according to the handbook). In brief: • 10 ml sample input; • lysis: 1 ml Proteinase K and 8 ml Buffer ACL (QIAGEN) • binding: 18 ml Buffer ACB (QIAGEN) • wash-steps: unchanged and according to handbook • elution in 60 μl Buffer AVE (QIAGEN)
1.3.1 Measurement of the blood cell stability/DNA release by the determination of DNA size distribution using a chip gel electrophoresis (2100 Bioanalyzer; Agilent Technologies; Inc., USA) according to manufacturer's instruction (see handbook Agilent DNA 7500 and DNA 12000 Kit Guide), but 1.5 μl instead of 1 μl sample were transferred to the wells.
Each tested caspase inhibitor was added to whole blood samples (20 μM end concentration in 10 ml blood; blood was collected into Vacutainer K2E Tubes; BD). The whole blood sample was processed as described in section 1 (plasma preparation and nucleic acid isolation).
The eluted circulating cell-free DNA was separated by size using chip gel electrophoresis (for details on the method see above). […]

For data set [2], the system named is whole blood samples. The experiment in a line: 18S DNA duplex real time PCR assay, increase of DNA in plasma of stored blood, example 5. To be noted: 20 μM caspase inhibitor in whole blood; storage at RT. The class given is cell-based, human. (Real-time PCR tracks product formation cycle by cycle.)
For a further data set, the system named is cells. To be noted: even at extremely high concentrations; cited from earlier work.
A further data set has as its target T1, caspase-3 (Homo sapiens, UniProt P42574).
T1 sequence (P42574 29-175 limits assumed): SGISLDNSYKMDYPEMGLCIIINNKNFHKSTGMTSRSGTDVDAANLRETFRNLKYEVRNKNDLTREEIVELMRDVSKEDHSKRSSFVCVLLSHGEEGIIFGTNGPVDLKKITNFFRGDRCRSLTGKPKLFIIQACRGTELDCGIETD
T1 sequence (P42574 176-277 limits assumed): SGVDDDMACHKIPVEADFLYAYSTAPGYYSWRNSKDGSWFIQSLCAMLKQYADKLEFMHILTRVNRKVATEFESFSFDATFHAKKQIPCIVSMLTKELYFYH
The conditions noted are these: cited from earlier work.

Another data set has as its target T2, caspase-7 (Homo sapiens, UniProt P55210).
T2 sequence (P55210 24-198 limits assumed): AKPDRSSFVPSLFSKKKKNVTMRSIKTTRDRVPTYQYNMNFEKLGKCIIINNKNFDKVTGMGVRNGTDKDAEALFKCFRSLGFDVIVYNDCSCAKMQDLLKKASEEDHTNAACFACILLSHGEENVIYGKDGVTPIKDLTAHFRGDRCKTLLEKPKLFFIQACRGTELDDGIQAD
T2 sequence (P55210 207-303 limits assumed): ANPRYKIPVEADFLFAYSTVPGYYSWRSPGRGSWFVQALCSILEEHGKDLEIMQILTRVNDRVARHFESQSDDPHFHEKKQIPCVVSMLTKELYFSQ
The conditions noted are these: cited from earlier work.

The target in another data set is T3, caspase-2 (Homo sapiens, UniProt P42575).
T3 sequence (P42575 170-325 limits assumed): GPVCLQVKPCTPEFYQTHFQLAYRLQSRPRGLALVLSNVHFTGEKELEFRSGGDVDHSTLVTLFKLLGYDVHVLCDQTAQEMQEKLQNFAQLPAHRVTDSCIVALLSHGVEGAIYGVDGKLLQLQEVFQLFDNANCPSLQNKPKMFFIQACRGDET
T3 sequence (P42575 348-452 limits assumed): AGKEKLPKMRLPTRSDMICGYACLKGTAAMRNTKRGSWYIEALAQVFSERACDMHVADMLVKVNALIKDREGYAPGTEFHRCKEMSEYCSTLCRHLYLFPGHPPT
The conditions noted are these: cited from earlier work.

The next data set has as its target caspase-8 (Homo sapiens, UniProt Q14790). The conditions noted are these: cited from earlier work.
The next data set deals with anthrax lethal factor (Bacillus anthracis, UniProt P15917). The conditions noted are these: cited from earlier work.
The target of data set [3] is N-SMase (neutral sphingomyelinase). To be noted: rat brain; cited from earlier work.
The test system of a further data set is MCF7 breast cancer cells. To be noted: at 20 μM; cited from earlier work.
The test system of a further data set is HeLa cell mitochondria. The conditions noted are these: at 5 μM; cited from earlier work.
The next data set concerns the target COX-1 (Homo sapiens, UniProt P23219). To be noted: cited from earlier work.
The subject of the next data set is COX-2. To be noted: cited from earlier work.
Another data set relates to myocardial infarct size. The conditions noted are these: during reperfusion; cited from earlier work.
The target in data set [4] is T4, caspase-1 (Homo sapiens, UniProt P29466).
T4 sequence (P29466 120-297 limits assumed): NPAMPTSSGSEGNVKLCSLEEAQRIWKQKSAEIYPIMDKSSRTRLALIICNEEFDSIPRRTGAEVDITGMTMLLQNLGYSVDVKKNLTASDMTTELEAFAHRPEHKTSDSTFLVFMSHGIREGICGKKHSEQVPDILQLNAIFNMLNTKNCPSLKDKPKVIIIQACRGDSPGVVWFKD
T4 sequence (P29466 317-404 limits assumed): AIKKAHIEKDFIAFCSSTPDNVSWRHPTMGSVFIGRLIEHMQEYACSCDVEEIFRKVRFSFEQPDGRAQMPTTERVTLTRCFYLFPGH
The conditions noted are these: cited from earlier work.

The target in the next data set is T5, caspase-10 (Homo sapiens, UniProt Q92851).
T5 sequence (Q92851 220-415 limits assumed): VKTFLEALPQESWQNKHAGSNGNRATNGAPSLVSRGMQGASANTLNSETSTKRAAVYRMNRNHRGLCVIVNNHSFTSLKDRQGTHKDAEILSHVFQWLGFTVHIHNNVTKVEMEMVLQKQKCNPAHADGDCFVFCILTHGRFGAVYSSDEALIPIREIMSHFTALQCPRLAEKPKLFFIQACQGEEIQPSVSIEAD
T5 sequence (Q92851 416-521 limits assumed): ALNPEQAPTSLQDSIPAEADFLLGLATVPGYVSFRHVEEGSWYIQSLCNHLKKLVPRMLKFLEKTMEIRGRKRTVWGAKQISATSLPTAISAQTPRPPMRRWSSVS
To be noted: value type not repeated in the cell; cited from earlier work.

A further data set addresses calpain I (Homo sapiens, UniProt P07384). The conditions noted are these: cited from earlier work.
The target in a further data set is T6, calpain II (Homo sapiens, UniProt P17655).
T6 sequence (P17655 1-700): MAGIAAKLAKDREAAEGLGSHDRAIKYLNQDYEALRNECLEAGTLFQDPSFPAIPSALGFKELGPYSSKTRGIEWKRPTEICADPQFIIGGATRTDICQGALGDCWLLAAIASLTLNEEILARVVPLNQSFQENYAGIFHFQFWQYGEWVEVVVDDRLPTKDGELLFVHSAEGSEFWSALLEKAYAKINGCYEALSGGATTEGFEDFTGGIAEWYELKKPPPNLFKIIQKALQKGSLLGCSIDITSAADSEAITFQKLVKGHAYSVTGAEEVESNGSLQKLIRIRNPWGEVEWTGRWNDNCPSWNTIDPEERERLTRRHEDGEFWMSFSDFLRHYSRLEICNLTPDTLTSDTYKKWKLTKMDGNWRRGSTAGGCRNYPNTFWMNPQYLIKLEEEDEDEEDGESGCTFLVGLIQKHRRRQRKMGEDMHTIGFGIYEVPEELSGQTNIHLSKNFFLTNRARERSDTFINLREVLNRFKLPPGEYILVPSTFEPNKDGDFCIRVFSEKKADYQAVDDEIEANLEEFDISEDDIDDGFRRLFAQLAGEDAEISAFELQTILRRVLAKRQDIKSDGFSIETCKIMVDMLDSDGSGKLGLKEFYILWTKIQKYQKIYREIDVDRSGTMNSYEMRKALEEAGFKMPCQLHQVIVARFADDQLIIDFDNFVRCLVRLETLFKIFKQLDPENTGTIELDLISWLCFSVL
T6 sequence (P04632 1-268 partner): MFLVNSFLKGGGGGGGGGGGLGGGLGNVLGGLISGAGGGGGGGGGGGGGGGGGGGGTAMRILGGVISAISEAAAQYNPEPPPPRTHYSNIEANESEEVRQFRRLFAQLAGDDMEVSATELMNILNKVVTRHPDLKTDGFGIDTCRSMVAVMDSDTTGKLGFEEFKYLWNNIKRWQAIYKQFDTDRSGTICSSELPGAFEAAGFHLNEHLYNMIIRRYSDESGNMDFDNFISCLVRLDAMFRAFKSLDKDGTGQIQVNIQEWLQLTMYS
The conditions noted are these: cited from earlier work.

Another data set concerns the target cathepsin L (Homo sapiens, UniProt P07711). The conditions noted are these: cited from earlier work.
For data set [5], the target named is T4, caspase-1. The conditions noted are these: cited from earlier work. The source holds these as a separate data set.
The subject of another data set is pancreatic duct cells. The conditions noted are these: cited from earlier work.
The target of data set [6] is T7, Omi/HtrA2 (His-Omi134-458) (Homo sapiens, UniProt O43464).
T7 construct: His-Omi134-458; His (N)
To be noted: for His-Omi134-458; cited from earlier work.

The subject of data set [7] is various other serine proteases. The conditions noted are these: cited from earlier work.

Sequence of anthrax lethal factor (P15917 34-809 limits assumed): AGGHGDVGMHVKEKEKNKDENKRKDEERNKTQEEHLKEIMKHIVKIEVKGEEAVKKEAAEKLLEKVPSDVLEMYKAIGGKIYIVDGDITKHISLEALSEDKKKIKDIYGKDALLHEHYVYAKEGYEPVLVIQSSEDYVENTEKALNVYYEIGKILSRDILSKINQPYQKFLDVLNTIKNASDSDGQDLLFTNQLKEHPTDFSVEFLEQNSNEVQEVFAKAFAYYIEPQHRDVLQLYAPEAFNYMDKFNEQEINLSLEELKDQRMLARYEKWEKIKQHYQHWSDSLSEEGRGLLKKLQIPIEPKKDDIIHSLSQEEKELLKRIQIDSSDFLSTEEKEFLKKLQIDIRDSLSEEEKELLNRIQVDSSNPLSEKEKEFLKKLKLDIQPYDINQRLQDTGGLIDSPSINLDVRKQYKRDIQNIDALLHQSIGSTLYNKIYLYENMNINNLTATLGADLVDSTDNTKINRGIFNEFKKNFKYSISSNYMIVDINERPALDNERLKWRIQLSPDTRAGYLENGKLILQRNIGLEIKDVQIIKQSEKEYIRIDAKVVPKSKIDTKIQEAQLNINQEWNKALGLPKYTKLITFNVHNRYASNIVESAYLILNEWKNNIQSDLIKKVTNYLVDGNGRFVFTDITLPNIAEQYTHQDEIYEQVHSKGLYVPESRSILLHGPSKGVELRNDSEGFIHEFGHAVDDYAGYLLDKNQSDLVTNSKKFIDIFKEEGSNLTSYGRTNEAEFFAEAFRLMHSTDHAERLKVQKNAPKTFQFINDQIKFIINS
Sequence of cathepsin L (P07711 114-333, species assumed): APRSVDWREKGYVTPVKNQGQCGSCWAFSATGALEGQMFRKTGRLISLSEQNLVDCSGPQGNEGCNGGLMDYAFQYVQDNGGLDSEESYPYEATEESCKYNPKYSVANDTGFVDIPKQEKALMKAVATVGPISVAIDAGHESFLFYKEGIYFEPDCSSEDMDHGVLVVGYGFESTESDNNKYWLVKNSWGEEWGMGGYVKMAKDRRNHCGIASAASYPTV
T7 sequence (O43464 134-458): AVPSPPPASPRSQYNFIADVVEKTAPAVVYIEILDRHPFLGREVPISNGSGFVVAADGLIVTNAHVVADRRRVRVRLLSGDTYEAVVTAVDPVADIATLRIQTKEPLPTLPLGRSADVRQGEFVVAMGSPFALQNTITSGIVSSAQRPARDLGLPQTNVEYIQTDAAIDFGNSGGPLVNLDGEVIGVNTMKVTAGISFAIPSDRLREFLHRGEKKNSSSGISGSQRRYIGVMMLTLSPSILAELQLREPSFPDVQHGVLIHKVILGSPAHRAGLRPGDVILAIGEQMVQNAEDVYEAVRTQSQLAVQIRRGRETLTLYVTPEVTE
Sequence of caspase-8 (Q14790 217-374 limits assumed, species assumed): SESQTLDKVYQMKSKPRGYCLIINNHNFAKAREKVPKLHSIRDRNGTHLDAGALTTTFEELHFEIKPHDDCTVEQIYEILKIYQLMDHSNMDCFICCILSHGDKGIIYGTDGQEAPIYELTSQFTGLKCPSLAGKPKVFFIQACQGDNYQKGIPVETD
Sequence of caspase-8 (Q14790 385-479 limits assumed, species assumed): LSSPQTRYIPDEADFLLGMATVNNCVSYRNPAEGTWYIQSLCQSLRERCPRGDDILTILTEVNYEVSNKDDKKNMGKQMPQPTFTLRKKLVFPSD
Sequence of COX-1 (P23219 24-599): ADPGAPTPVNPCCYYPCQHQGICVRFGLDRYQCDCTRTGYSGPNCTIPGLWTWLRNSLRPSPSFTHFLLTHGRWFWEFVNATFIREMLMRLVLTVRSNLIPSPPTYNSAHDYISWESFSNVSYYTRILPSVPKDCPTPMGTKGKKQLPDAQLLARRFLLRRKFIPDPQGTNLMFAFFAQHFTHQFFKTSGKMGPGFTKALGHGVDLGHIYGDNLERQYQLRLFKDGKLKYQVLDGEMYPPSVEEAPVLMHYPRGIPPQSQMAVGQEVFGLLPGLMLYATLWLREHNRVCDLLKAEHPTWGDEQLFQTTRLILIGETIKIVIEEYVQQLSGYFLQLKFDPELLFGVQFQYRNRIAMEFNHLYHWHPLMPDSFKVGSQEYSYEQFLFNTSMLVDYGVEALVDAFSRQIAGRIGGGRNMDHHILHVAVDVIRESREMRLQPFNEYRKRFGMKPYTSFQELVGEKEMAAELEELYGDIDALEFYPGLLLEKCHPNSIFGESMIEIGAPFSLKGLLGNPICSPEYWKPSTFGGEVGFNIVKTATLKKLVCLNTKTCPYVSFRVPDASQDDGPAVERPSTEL
Sequence of calpain I (P07384 whole entry, one chain of several): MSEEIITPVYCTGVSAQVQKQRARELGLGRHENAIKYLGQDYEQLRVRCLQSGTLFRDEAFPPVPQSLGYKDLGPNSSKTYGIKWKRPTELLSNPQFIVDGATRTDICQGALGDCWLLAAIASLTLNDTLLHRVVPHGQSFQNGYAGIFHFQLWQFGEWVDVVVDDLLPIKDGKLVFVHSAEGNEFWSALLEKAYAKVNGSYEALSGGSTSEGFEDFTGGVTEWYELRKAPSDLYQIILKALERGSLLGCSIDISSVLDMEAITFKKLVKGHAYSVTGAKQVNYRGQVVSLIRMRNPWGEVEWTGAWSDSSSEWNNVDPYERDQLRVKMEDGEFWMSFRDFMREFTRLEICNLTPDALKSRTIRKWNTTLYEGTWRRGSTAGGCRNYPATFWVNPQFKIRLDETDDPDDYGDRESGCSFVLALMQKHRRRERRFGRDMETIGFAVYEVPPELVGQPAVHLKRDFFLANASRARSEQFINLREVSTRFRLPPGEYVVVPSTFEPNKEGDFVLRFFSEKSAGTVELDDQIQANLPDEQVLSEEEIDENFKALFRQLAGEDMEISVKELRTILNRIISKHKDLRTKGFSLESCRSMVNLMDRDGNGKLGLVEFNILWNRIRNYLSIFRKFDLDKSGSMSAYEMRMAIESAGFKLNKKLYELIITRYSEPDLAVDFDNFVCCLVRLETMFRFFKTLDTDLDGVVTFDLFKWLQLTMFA

Take “H-Val-Pro-Met-Leu-Lys-OH (H-VPMLK-OH) [Bax-Inhibiting Peptide, V5]”: the “concentration effective for Bax-mediated apoptosis” value with Bax-mediated apoptosis is given as “mediated apoptosis (~50-200 μM). Also effectively blocks caspase-”.
As to `CC(C)C(NC(=O)c1ccc2ccccc2n1)C(=O)NC(CC(=O)O)C(=O)COc1c(F)cccc1F` (stereo not drawn) [Q-VD-OPh, Quinoline-Val-Asp-CH2-OPH], the “ladder-like pattern of bands (release and fragmentation of genomic DNA) compared to controls” value in the data set with whole blood samples [1] is “significantly reduced ladder-like patterns”. In addition, the “increase of DNA from day 0 to day 3 or 7” value in the data set on whole blood samples [2] was “reduced increase of DNA”. In addition, the toxicity to cells entry in the data set with cells was “not toxic to cells”.
Take “Ac-Val-Asp-Val-Ala-Asp-CHO (Ac-VDVAD-aldehyde) [Caspase Inhibitor VIII]”: the Ki (in general, a dissociation constant, usually derived from enzyme kinetics or from competition with a known ligand) with caspase-3 is 1 nM; in the data set with caspase-7 it was 7.5 nM; with caspase-2, 3.5 nM.
Consider `FC(F)(F)c1cccc(-c2csc(C3COc4ccccc4O3)n2)c1` (stereo not drawn) [Caspase Inhibitor X], for which the Ki on caspase-8 is 2700 nM. For the same compound, the “effect on activity of anthrax lethal factor” value on anthrax lethal factor is recorded as “assisted cleavage of BID, a proapoptotic protein. Weakly affects”.
For the compound `O=C(C=Cc1ccc(C=CC(=O)Nc2ccc(C3=NCCN3)cc2)cc1)Nc1ccc(C2=NCCN2)cc1` [GW 4869], the IC50 (usually the concentration at which inhibition is half-maximal) in [3] is about 1000 nM. For the same compound, the “protection against TNF-α or diamine-induced cell death” value in the data set on MCF7 breast cancer cells is “specific PLC. Reported to offer complete protection against TNF-α”.
On to `OC(CN1CCNCC1)Cn1c2ccc(Br)cc2c2cc(Br)ccc21` (racemic) [Bax Channel Blocker, (±)-1-(3,6-Dibromocarbazol-9-yl)-3-piperazin-1-yl-propan-2-ol, bis TFA], for which the “inhibition of Bid-induced cytochrome c release” value with HeLa cell mitochondria is listed as “cyctochrome c release from HeLa cell mitochondria (~80%”.
Turning to `O=c1c(O)c(-c2ccc(O)cc2)oc2cc(O)cc(O)c12` [Kaempferol], the figures for the IC50 at COX-1 and in the data set on COX-2 were 180000 nM and under 15000 nM, respectively.
With “Ac-Leu-Glu-His-Asp-CMK (LEHD; HELM PEPTIDE1{[ac].L.E.H.D.[ClC[*:1]]}$$$$V2.0; SMILES CC(=O)N[C@@H](CC(C)C)C(=O)N[C@@H](CCC(=O)O)C(=O)N[C@@H](Cc1c[nH]cn1)C(=O)N[C@@H](CC(=O)O)C(=O)CCl) [Caspase-9 Inhibitor III]”, in the data set on myocardial infarct size, the “concentration reported to reduce myocardial infarct size” value was “myocardial infarct size during reperfusion (~70 nM)”.
As to “Ac-Ile-Glu-Thr-Asp-CHO (Ac-IETD-aldehyde) [Granzyme B Inhibitor II]”, the inhibitory constant (Ki) with caspase-1 [4] was under 6 nM; with caspase-10, 27 nM.
Consider `CCCCC(C=O)NC(=O)C(CC(C)C)NC(=O)C(CC(C)C)NC(C)=O` (stereo not drawn) [Ac-Leu-Leu-Nle-al] (Ac-Leu-Leu-[Nle]-aldehyde; configuration not given here), for which the Ki at calpain I was 190 nM; on calpain II, 150 nM; at cathepsin L, 0.5 nM.
Take “Ac-Tyr-Val-Ala-Asp-CHO [Caspase-1 Inhibitor I]”: the Ki with caspase-1 [5] was 0.2 nM.
Turning to `CCN1C(=O)C=CC1=O` [N-Ethylmaleimide], in the data set with pancreatic duct cells, the IC50 is 22000 nM.
Turning to `O=C1C(=Cc2ccc(-c3ccccc3[N+](=O)[O-])o2)C(=O)N(c2ccccc2)C(=S)N1c1ccccc1` [Omi/HtrA2 Protease Inhibitor, Ucf-101], the 50% inhibitory concentration (IC50) in data set [6] is 9500 nM; in data set [7] it was at least 200000 nM.
